Results taken from ChEMBL document CHEMBL1201862, “PubChem BioAssay data set” (2004).
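Step 1: Grow cells in 96-well plates. Step 2: Expose to compound for 48 hours at 5 concentrations. Step 3: Interpolate endpoints linearly; if unreached, use highest concentration. GI50: concentration for 50% inhibition of growth.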 The source made the active and inactive calls. Rule as the data show it: active = GI50 up to about 1.1 µM and inactive = higher.

Tests used:
Assay in all cases: DTP human tumour cell line panel, 48 h
[1] = test system: KM12
[2] = test system: OVCAR-5
[3] = test system: T47D
[4] = test system: Hs-578T
[5] = test system: SN12C
[6] = test system: IGROV-1
[7] = test system: CCRF-CEM
[8] = test system: DU-145
[9] = test system: SK-MEL-2
[10] = test system: RXF 393
[11] = test system: COLO 205
[12] = test system: OVCAR-3
[13] = test system: NCI-H23
[14] = test system: M14
[15] = test system: A549
[16] = test system: 786-0
[17] = test system: HCC 2998
[18] = test system: MDA-MB-435
[19] = test system: NCI-H226
[20] = test system: OVCAR-4
[21] = test system: SF-295
[22] = test system: LOX IMVI
[23] = test system: HL-60
[24] = test system: Malme-3M
[25] = test system: HOP-92
[26] = test system: UACC-257
[27] = test system: MCF7
[28] = test system: NCI-H460
[29] = test system: TK-10
[30] = test system: RPMI-8226
[31] = test system: CAKI-1
[32] = test system: SF-539
[33] = test system: EKVX
[34] = test system: SK-MEL-28
[35] = test system: A498
[36] = test system: SK-MEL-5
[37] = test system: K562
[38] = test system: UACC-62
[39] = test system: SF-268
[40] = test system: HCT-116
[41] = test system: ACHN
[42] = test system: SR
[43] = test system: SK-OV-3
[44] = test system: SNB-19
[45] = test system: BT-549
[46] = test system: MOLT-4
[47] = test system: U-251
[48] = test system: HT-29
[49] = test system: SW-620
[50] = test system: MDA-N
[51] = test system: OVCAR-8
[52] = test system: HCT-15
[53] = test system: MDA-MB-231
[54] = test system: NCI/ADR-RES
[55] = test system: UO-31
[56] = test system: NCI-H522
[57] = test system: PC-3
[58] = test system: HOP-62
[59] = test system: SNB-75

O=C(Sc1n[nH]c(=O)[nH]c1=O)c1cccc2nc3ccccc3nc12
GI50 [1]: 39 µM (inactive)
GI50 [2]: > 100 µM (inactive)
GI50 [3]: > 100 µM (inactive)
GI50 [4]: 20 µM (inactive)
GI50 [5]: 34.3 µM (inactive)
GI50 [6]: > 100 µM (inactive)
GI50 [7]: > 100 µM (inactive)
GI50 [8]: 10.6 µM (inactive)
GI50 [9]: 68.2 µM (inactive)
GI50 [10]: > 100 µM (inactive)
GI50 [11]: 2.44 µM (inactive)
GI50 [12]: 50 µM (inactive)
GI50 [13]: 3.78 µM (inactive)
GI50 [14]: 23.6 µM (inactive)
GI50 [15]: 4.05 µM (inactive)
GI50 [16]: > 100 µM (inactive)
GI50 [17]: 27.9 µM (inactive)
GI50 [18]: 13.7 µM (inactive)
GI50 [19]: 34.4 µM (inactive)
GI50 [20]: 76.9 µM (inactive)
GI50 [21]: 57 µM (inactive)
GI50 [22]: 18.5 µM (inactive)
GI50 [23]: > 100 µM (inactive)
GI50 [24]: 5.64 µM (inactive)
GI50 [25]: > 100 µM (inactive)
GI50 [26]: 13.2 µM (inactive)
GI50 [27]: 7.67 µM (inactive)
GI50 [28]: 8.63 µM (inactive)
GI50 [29]: > 100 µM (inactive)
GI50 [30]: 78.5 µM (inactive)
GI50 [31]: 78.3 µM (inactive)
GI50 [32]: 35.6 µM (inactive)
GI50 [33]: > 100 µM (inactive)
GI50 [34]: 30.7 µM (inactive)
GI50 [35]: > 100 µM (inactive)
GI50 [36]: 3.41 µM (inactive)
GI50 [37]: 47.9 µM (inactive)
GI50 [38]: 38.8 µM (inactive)
GI50 [39]: > 100 µM (inactive)
GI50 [40]: > 100 µM (inactive)
GI50 [41]: 30.2 µM (inactive)
GI50 [42]: > 100 µM (inactive)
GI50 [43]: > 100 µM (inactive)
GI50 [44]: > 100 µM (inactive)
GI50 [45]: 8.36 µM (inactive)
GI50 [46]: > 100 µM (inactive)
GI50 [47]: > 100 µM (inactive)
GI50 [48]: 13.5 µM (inactive)
GI50 [49]: 41.2 µM (inactive)
GI50 [50]: 11.8 µM (inactive)
GI50 [51]: > 100 µM (inactive)
GI50 [52]: 26.7 µM
GI50 [53]: > 100 µM (inactive)
GI50 [54]: > 100 µM (inactive)

CCOc1ccc(NC(=S)N/C=C(/C(C)=O)C(=O)Nc2ccccc2C)cc1
GI50 [1]: > 100 µM (inactive)
GI50 [2]: > 100 µM (inactive)
GI50 [3]: > 100 µM (inactive)
GI50 [55]: > 100 µM (inactive)
GI50 [4]: > 100 µM (inactive)
GI50 [5]: > 100 µM (inactive)
GI50 [6]: > 100 µM (inactive)
GI50 [8]: > 100 µM (inactive)
GI50 [9]: > 100 µM (inactive)
GI50 [10]: > 100 µM (inactive)
GI50 [11]: > 100 µM (inactive)
GI50 [12]: > 100 µM (inactive)
GI50 [13]: > 100 µM (inactive)
GI50 [14]: > 100 µM (inactive)
GI50 [56]: > 100 µM (inactive)
GI50 [15]: > 100 µM (inactive)
GI50 [16]: > 100 µM (inactive)
GI50 [17]: > 100 µM (inactive)
GI50 [18]: > 100 µM (inactive)
GI50 [19]: > 100 µM (inactive)
GI50 [20]: 59.8 µM (inactive)
GI50 [21]: > 100 µM (inactive)
GI50 [22]: > 100 µM (inactive)
GI50 [23]: > 100 µM (inactive)
GI50 [57]: > 100 µM (inactive)
GI50 [26]: > 100 µM (inactive)
GI50 [27]: > 100 µM (inactive)
GI50 [28]: > 100 µM (inactive)
GI50 [29]: > 100 µM (inactive)
GI50 [30]: 7.35 µM (inactive)
GI50 [31]: > 100 µM (inactive)
GI50 [58]: > 100 µM (inactive)
GI50 [32]: > 100 µM (inactive)
GI50 [33]: > 100 µM (inactive)
GI50 [36]: > 100 µM (inactive)
GI50 [37]: > 100 µM (inactive)
GI50 [38]: > 100 µM (inactive)
GI50 [39]: > 100 µM (inactive)
GI50 [40]: > 100 µM (inactive)
GI50 [41]: > 100 µM (inactive)
GI50 [43]: > 100 µM (inactive)
GI50 [44]: > 100 µM (inactive)
GI50 [45]: > 100 µM (inactive)
GI50 [46]: > 100 µM (inactive)
GI50 [47]: > 100 µM (inactive)
GI50 [48]: > 100 µM (inactive)
GI50 [49]: > 100 µM (inactive)
GI50 [50]: > 100 µM (inactive)
GI50 [51]: > 100 µM (inactive)
GI50 [52]: > 100 µM
GI50 [53]: > 100 µM (inactive)
GI50 [54]: > 100 µM (inactive)

CCOC(=O)CCC(NC(=O)c1ccc(N2CCN(c3c(C)nc(N)nc3N)CC2)cc1)C(=O)OCC (centres undefined)
GI50 [1]: 1.43 µM (inactive)
GI50 [2]: > 100 µM (inactive)
GI50 [3]: > 88.9 µM (inactive)
GI50 [55]: > 100 µM (inactive)
GI50 [4]: > 100 µM (inactive)
GI50 [5]: > 22.5 µM (inactive)
GI50 [6]: 0.113 µM (active)
GI50 [7]: 0.109 µM (active)
GI50 [8]: > 100 µM (inactive)
GI50 [9]: > 100 µM (inactive)
GI50 [11]: > 64.1 µM (inactive)
GI50 [12]: > 21.2 µM (inactive)
GI50 [13]: 0.169 µM (active)
GI50 [14]: 1.32 µM (inactive)
GI50 [56]: 11 µM (inactive)
GI50 [15]: 0.213 µM (active)
GI50 [16]: 0.0929 µM (active)
GI50 [17]: 10.6 µM (inactive)
GI50 [18]: 0.251 µM (active)
GI50 [19]: 0.902 µM (active)
GI50 [20]: > 100 µM (inactive)
GI50 [22]: 0.513 µM (active)
GI50 [57]: 0.0398 µM (active)
GI50 [24]: > 100 µM (inactive)
GI50 [25]: 48.6 µM (inactive)
GI50 [26]: 15.6 µM (inactive)
GI50 [27]: 0.685 µM (active)
GI50 [28]: 6.53 µM (inactive)
GI50 [29]: > 100 µM (inactive)
GI50 [30]: 1.76 µM (inactive)
GI50 [31]: 2.52 µM (inactive)
GI50 [32]: 16.2 µM (inactive)
GI50 [33]: > 78.2 µM (inactive)
GI50 [34]: > 31.6 µM (inactive)
GI50 [35]: 65.2 µM (inactive)
GI50 [36]: 0.0923 µM (active)
GI50 [37]: < 0.01 µM (active)
GI50 [59]: > 37.1 µM (inactive)
GI50 [38]: 0.165 µM (active)
GI50 [39]: 0.757 µM (active)
GI50 [40]: 0.0527 µM (active)
GI50 [41]: 0.122 µM (active)
GI50 [43]: > 100 µM (inactive)
GI50 [44]: 0.514 µM (active)
GI50 [45]: > 100 µM (inactive)
GI50 [46]: 0.186 µM (active)
GI50 [47]: 0.0845 µM (active)
GI50 [48]: 3.15 µM (inactive)
GI50 [50]: 12.9 µM (inactive)
GI50 [51]: 0.452 µM (active)
GI50 [52]: 3.36 µM
GI50 [53]: > 100 µM (inactive)
GI50 [54]: 7.43 µM (inactive)
